Results from article PMC5566973 (Frontiers in Pharmacology, 2017).
Like-named read-outs stand apart in the source and are kept apart here.

Assays:
MDCK cells = assay: Cytotoxicity CCK-8 assay in MDCK cells; type: cell-based, canine; conditions: CCK-8
Experimental: (§1) In brief, the cells were seeded on 96-well plates at 1 × 10^5 cells/mL and cultured in 100 μL of culture medium at incubator for 24 h. […] After 12 h incubation, 10 μL of CCK-8 dye was added to each well, and cells were incubated for another 2 h. Cell viability (%) was calculated using the following Equation (1):
(§2) (1) Cell viability (%)=(ODsample−ODblank)/ (ODcontrol−ODblank) ×100%
(§3) ODsample refers to the absorbance of a well with treated cells and CCK-8. ODblank refers to the absorbance of a well with medium and CCK-8 but without cells. ODcontrol refers to the absorbance of a well with untreated cells and CCK-8. The absorbance at 450 nm was measured by a microplate reader (Biotek Instrument; Gene Co., Ltd., VT, USA), and the results are presented as mean ± SD from triplicate wells.

[1] = Cytotoxicity CCK-8 assay in MDCK cells; type: cell-based, canine; conditions: dog, MDCK cells, 12 h incubation, read-out: Cell viability
Experimental: as §1, §2, §3

[2] = tested on: MDCK-MRP2 cell monolayers; assay: Bidirectional transport in MDCK-MRP2 cell monolayers with MRP2 inhibitors; type: in vitro ADME, canine; conditions: MDCK-MRP2, 2 μM
Experimental: (§4) Caco-2, MDCK and MDCK-MRP2 cells were donated by Prof. Yan Xie and Yueming Ma from Shanghai University of Traditional Chinese Medicine. The cells were grown in culture dishes (Corning® Costar, Cambridge, MA, USA) using DMEM supplemented with 10% FBS, 1% NEAA and 1% penicillin-streptomycin solution. The cells were cultured in 5% CO2 and […] with 90% relative humidity at 37°C. The medium was replaced every other day during incubation. The cells were passaged every 3–4 days between 70 and 80% confluence at a 1:5 split ratio using 0.25% trypsin-EDTA. For the transport experiments, the cells from passages between 30 and 45 were seeded at 1 × 10^5 cells/cm^2 onto permeable polycarbonate inserts (0.45 μm pore size, seeding surface of 0.6 cm^2, Millipore, MA, USA) in 24-well plastic plates. The media in the culture plates were changed every other day for the first week after seeding and were replaced daily afterward. […] The cells were used for the transport experiments 21–28 (Caco-2) or 5–7 (MDCK and MDCK-MRP2) days after seeding, and only monolayers with a TEER-value above 420 Ω cm^2 were used during the studies.
(§5) The apical (AP) and basolateral (BL) sides are typical of polarized Caco-2, MDCK and MDCK-MRP2 epithelial cells. Before the experiments, the polarized cell monolayers were washed twice with warm HBSS solution and subsequently preincubated (37°C, 30 min). Afterward, HBSS solution on both sides of the cell monolayers was removed using a mini desktop vacuum pump. […] The final DMSO concentration in the HBSS or drug mixture was below 0.5%. The monolayers were incubated at 37°C, and 100 μL samples were taken at 30, 60, 90, and 120 min from the acceptor compartment and immediately replaced with the same volume of prewarmed fresh blank HBSS. TEER measurements for assessing the membrane integrity took place before and after the experiments.
(§6) The apparent permeability coefficients (Papp) and ER were calculated as Equations (2) and (3): […]
(§7) where dQ/dt is the steady-state flux, A is the membrane surface area, and C0 is the initial drug concentration in the donor compartment. PappBA is the Papp-value measured in BL to AP direction and PappAB is the Papp-value measured in AP to BL direction. It indicated the involvement of an active transport process when the ER-value is above 1.5 (Hubatsch et al., [2007]).

MRP2 = assay: as above; type: in vitro ADME, canine; conditions: dog, MDCK-MRP2, 2 μM; for efflux ratio at 120 min, 2 μM: read-out: ER
Experimental: as §4, §5, §6, §7

[3] = Pharmacokinetics in rats after intravenous and intragastric administration; conditions: for bioavailability: F%
Experimental: Fifty-six pathogen-free Sprague-Dawley adult rats comprising 28 males and 28 females (weighing within the range of 200–250 g) were obtained from Drug Safety Evaluation and Research Center of Shanghai University of Traditional Chinese Medicine. Animals were raised under an environmentally controlled breeding room for 7 days before commencing the experiments. Animals were housed in a well-lighted air-conditioned room (25 ± 1°C) under standard environmental conditions (12 h light-dark cycles) and given free access to rodent chow and tap water prior to the study. Rats were fasted for 12 h and provided free access to water prior to the experiments. All animal-use procedures were in accordance with the regulations for animal experimentation issued by the State Committee of Science and Technology of the People's Republic of China on 14 November 1988 and approved by the Animal Ethics Committee of Shanghai University of Traditional Chinese Medicine (No. SUTCM-2011-1107; Approval date: 10 November, 2011).
Forty rats with 20 males and 20 females were randomly divided into five groups of eight rats in each. […] Approximately 0.25 mL of blood sample was collected from the angular vein of each conscious rat and transferred into heparinized tubes at 0 (predose), 0.03, 0.08, 0.25, 0.5, 0.75, 1.0, 2.0, 4.0, 8.0, 12.0, and 24.0 h after administration. Rats had free access to water after 4.0 h of blood sample collection. Serial blood samples were immediately centrifuged at 3,000 rpm for 15 min, and 100 μL of the supernatant plasma layer was transferred into another new 1.5 mL centrifuge tube and stored at −80°C until analysis.
The maximum peak concentration (Cmax) and time of maximum plasma concentration (Tmax) were obtained directly from the observed concentration vs. time data.
(5) F=(AUC0−∞,oral×Doseiv)/(AUC0−∞,iv×Doseoral)×100%

[4] = with MK571 0.05 mM (50 μM), + MK571 0.05 mM (MRP2)
[5] = with probenecid 0.2 mM (200 μM), + Probenecid 0.2 mM (MRP2)
[6] = both, Sprague-Dawley, rat, in vivo, iv, 3.3 mg/kg
[7] = both, Sprague-Dawley, rat, in vivo, iv, 3.3 mg/kg, rats, i.v. 3.3 mg/kg
[8] = both, Sprague-Dawley, rat, in vivo, po, 40 mg/kg
[9] = both, Sprague-Dawley, rat, in vivo, po, 40 mg/kg, rats, harmine p.o. 40.0 mg/kg co-administered with probenecid 20.0 mg/kg
[10] = both, Sprague-Dawley, rat, in vivo, po, 40 mg/kg, rats, p.o. 40.0 mg/kg
[11] = both, Sprague-Dawley, rat, in vivo, po, 40 mg/kg, rats, p.o. 40.0 mg/kg vs i.v. 3.3 mg/kg
[12] = rats, harmine p.o. 40.0 mg/kg co-administered with probenecid 20.0 mg/kg

Structure (SMILES) | concentration without toxicity or decreased cell viability (MDCK cells) | drug concentration producing notable toxicity (MDCK cells) | Modulatory effect ([2]; + MK571 0.05 mM (MRP2)) | Modulatory effect ([2]; + Probenecid 0.2 mM (MRP2)) | Papp A→B at 120 min, 2 μM (MRP2; [4]) | Papp B→A at 120 min, 2 μM (MRP2; [4]) | Papp A→B at 120 min, 2 μM (MRP2; [5]) | Papp B→A at 120 min, 2 μM (MRP2; [5]) | Papp A→B at 120 min, 2 μM (MRP2; Control (no inhibitor)) | Papp B→A at 120 min, 2 μM (MRP2; Control (no inhibitor)) | Vd [3, 6] | clearance [3, 6] | k el [3, 6] | AUC(0-t) [3, 7] | AUC(0-inf) [3, 7] | Cmax [3, 7] | MRT [3, 7] | Tmax [3, 7] | k el [3, 8] | AUC(0-t) [3, 10] | further results
COc1ccc2c(c1)[nH]c1c(C)nccc12 [Harmine] | up to 5 μM | > 25 µM | + | + | 20.8 ± 1.49 ×10⁻⁶ cm/s | 11.8 ± 1.25 ×10⁻⁶ cm/s | 10.1 ± 1.69 ×10⁻⁶ cm/s | 8.62 ± 1.05 ×10⁻⁶ cm/s | 3.55 ± 0.4 ×10⁻⁶ cm/s | 8.18 ± 0.98 ×10⁻⁶ cm/s | 10400 ± 5750 mL/kg | 40.8 mL/min/kg | 8.33e-05 s⁻¹ | 1260 ± 238 ng·h/mL | 1270 ± 239 ng·h/mL | 2320 ± 663 ng/mL | 1.01 ± 0.3 h | 1.8 min | 1.39e-05 s⁻¹ | 154 ± 46.5 ng·h/mL | viability at 12 h ([1]; up to 5 μM): > 90%; AUC(0-t) [3, 9]: 292 ± 70.4 ng·h/mL; AUC(0-inf) [3, 9]: 349 ± 76.7 ng·h/mL; AUC(0-inf) [3, 10]: 184 ± 57.4 ng·h/mL; Cmax [3, 9]: 98.9 ± 31.1 ng/mL; Cmax [3, 10]: 67 ± 34.3 ng/mL; bioavailability [3, 9]: 2.14 ± 0.59%; bioavailability [3, 11]: 1.09 ± 0.27%; MRT [3, 9]: 13.7 ± 3.54 h; MRT [3, 10]: 4.41 ± 1.03 h; Tmax [3, 9]: 47.4 ± 7.2 min; Tmax [3, 10]: 33.6 ± 7.8 min; increase of F-value after probenecid co-administration ([3]; rats, harmine p.o. 40.0 mg/kg + probenecid 20.0 mg/kg vs harmine alone): 1.96 folds; CL [3, 12]: 1966.7387 ± 409.9968 mL/min/kg; Ka [3, 12]: 0.73 ± 0.46 h⁻¹; Vd [3, 12]: 2464535.13 ± 990154.63 mL/kg; Ka ([3]; rats, i.v. 3.3 mg/kg): 2.71 ± 1.24 h⁻¹; CL ([3]; rats, p.o. 40.0 mg/kg): 3890.6588 ± 936.7433 mL/min/kg; Ka ([3]; rats, p.o. 40.0 mg/kg): 0.63 ± 0.42 h⁻¹; Vd ([3]; rats, p.o. 40.0 mg/kg): 4761642.39 ± 1571772.10 mL/kg
COc1ccc2c3c([nH]c2c1)C(C)=NCC3 [Harmaline] | up to 25 μM | higher than 100 μM | − | − | 31.8 ± 1.37 ×10⁻⁶ cm/s | 40.9 ± 5.48 ×10⁻⁶ cm/s | 32.9 ± 2.23 ×10⁻⁶ cm/s | 41.9 ± 5.58 ×10⁻⁶ cm/s | 24.3 ± 2.72 ×10⁻⁶ cm/s | 32.4 ± 3.81 ×10⁻⁶ cm/s | 94100 ± 102000 mL/kg | 173 mL/min/kg | 6.39e-05 s⁻¹ | 299 ± 64.3 ng·h/mL | 307 ± 64.3 ng·h/mL | 258 ± 64.9 ng/mL | 2.53 ± 1.42 h | 1.8 min | 5.56e-05 s⁻¹ | 644 ± 328 ng·h/mL | viability at 12 h ([1]; up to 25 μM): > 90%; efflux ratio at 120 min, 2 μM (MRP2; [4]): 1.34; efflux ratio at 120 min, 2 μM (MRP2; [5]): 1.28; efflux ratio at 120 min, 2 μM (MRP2; Control (no inhibitor)): 1.33; AUC(0-inf) [3, 10]: 666 ± 322 ng·h/mL; Cmax [3, 10]: 118 ± 59 ng/mL; bioavailability [3, 11]: 17.1 ± 10.1%; MRT [3, 10]: 6.24 ± 3.18 h; Tmax [3, 10]: 106 ± 66.6 min; Ka ([3]; rats, i.v. 3.3 mg/kg): 1.26 ± 0.83 h⁻¹; T1/2a ([3]; rats, i.v. 3.3 mg/kg): 1.24 ± 1.02 h; T1/2e ([3]; rats, i.v. 3.3 mg/kg): 4.05 ± 1.39 h; T1/2d ([3]; rats, i.v. 3.3 mg/kg): 1.57 ± 1.25 h; CL ([3]; rats, p.o. 40.0 mg/kg): 1244.488 ± 688.6782 mL/min/kg; Ka ([3]; rats, p.o. 40.0 mg/kg): 0.71 ± 0.38 h⁻¹; T1/2a ([3]; rats, p.o. 40.0 mg/kg): 1.74 ± 1.13 h; T1/2e ([3]; rats, p.o. 40.0 mg/kg): 5.13 ± 1.52 h; T1/2d ([3]; rats, p.o. 40.0 mg/kg): 2.40 ± 1.20 h; Vd ([3]; rats, p.o. 40.0 mg/kg): 705974.45 ± 595531.26 mL/kg
